The text below walks through data of ChEMBL document CHEMBL4840352 (J Med Chem, 2021).

Assay [1] deals with Receptor-type tyrosine-protein kinase FLT3 (Homo sapiens), P36888 [UNDEFINED MUTATION]. Description: Induction of FLT3-ITD degradation in human MV4-11 cells measured upto 18 hrs by Western blot analysis. In kind it is cell-based. As to conditions: time hrs <=18. (In general: A western blot detects proteins with antibodies after separation by electrophoresis.)
In assay [2] the test system is MOLM-13. Description: Antiproliferative activity against human MOLM-13 cells incubated for 48 hrs by CCK-8 assay. In kind it is functional, cell-based. As to conditions: MOLM-13, 48 h. For orientation: Tetrazolium assays rely on reduction of a dye to a coloured formazan, in cell work by metabolically active cells.
The test system of assay [3] is MV4-11. Description: Antiproliferative activity against human MV4-11 cells incubated for 48 hrs by CCK-8 assay. In kind it is functional, cell-based. As to conditions: MV4-11, 48 h.
The target of assay [4] is Mast/stem cell growth factor receptor Kit (Homo sapiens) (UniProt P10721). As to the kind of experiment: Inhibition of KIT (unknown origin) at 1000 nM relative to control.
The target in assay [5] is Mitogen-activated protein kinase kinase kinase kinase 1 (Homo sapiens) (UniProt Q92918). Description: Inhibition of HPK1 (unknown origin) at 1000 nM relative to control.
Assay [6] deals with CDK7/Cyclin H/MNAT1 (Homo sapiens) (UniProt P51946+P50613+P51948). As to the kind of experiment: Inhibition of CDK7/cyclinH/MAT1 (unknown origin) at 1000 nM relative to control. In kind it is protein-complex assay.
Assay [7] addresses Serine/threonine-protein kinase 4 (Homo sapiens) (UniProt Q13043). Description: Inhibition of MST1 (unknown origin) at 1000 nM relative to control.
The target of assay [8] is Proto-oncogene tyrosine-protein kinase Src (Homo sapiens) (UniProt P12931). As to the kind of experiment: Inhibition of SRC (unknown origin) at 1000 nM relative to control.
For assay [9], the target named is Maternal embryonic leucine zipper kinase (Homo sapiens) (UniProt Q14680). Description: Inhibition of MELK (unknown origin) at 1000 nM relative to control.
The target of assay [10] is Serine/threonine-protein kinase TBK1 (Homo sapiens) (UniProt Q9UHD2). Description: Inhibition of TBK1 (unknown origin) at 1000 nM relative to control.
The target of assay [11] is Serine/threonine-protein kinase MARK1 (Homo sapiens) (UniProt Q9P0L2). As to the kind of experiment: Inhibition of MARK1 (unknown origin) at 1000 nM relative to control.
Chain of Serine/threonine-protein kinase MARK1 (Homo sapiens) (Q9P0L2 whole entry, looked up): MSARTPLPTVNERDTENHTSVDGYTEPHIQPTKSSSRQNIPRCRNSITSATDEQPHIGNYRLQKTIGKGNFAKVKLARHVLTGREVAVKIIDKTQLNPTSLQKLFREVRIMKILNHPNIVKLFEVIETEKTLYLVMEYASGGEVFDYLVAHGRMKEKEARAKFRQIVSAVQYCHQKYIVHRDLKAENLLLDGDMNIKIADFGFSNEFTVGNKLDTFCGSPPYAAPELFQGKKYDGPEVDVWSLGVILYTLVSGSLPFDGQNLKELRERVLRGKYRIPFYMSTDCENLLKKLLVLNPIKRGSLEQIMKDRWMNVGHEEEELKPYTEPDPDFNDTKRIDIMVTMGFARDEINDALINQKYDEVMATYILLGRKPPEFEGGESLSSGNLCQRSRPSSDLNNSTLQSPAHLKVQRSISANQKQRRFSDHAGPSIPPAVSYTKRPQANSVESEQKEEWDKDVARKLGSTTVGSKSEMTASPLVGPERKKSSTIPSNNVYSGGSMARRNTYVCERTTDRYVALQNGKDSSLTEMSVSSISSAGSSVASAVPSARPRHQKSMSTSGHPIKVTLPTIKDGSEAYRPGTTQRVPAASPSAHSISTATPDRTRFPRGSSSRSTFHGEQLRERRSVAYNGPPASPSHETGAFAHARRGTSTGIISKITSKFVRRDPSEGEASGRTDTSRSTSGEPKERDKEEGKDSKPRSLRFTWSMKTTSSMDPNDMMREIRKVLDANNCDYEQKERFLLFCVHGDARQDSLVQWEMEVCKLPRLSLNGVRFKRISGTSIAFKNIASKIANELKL
In assay [12] the target is ALK tyrosine kinase receptor (Homo sapiens) (UniProt Q9UM73). As to the kind of experiment: Inhibition of ALK (unknown origin) at 1000 nM relative to control.
Assay [13] concerns the target Mitogen-activated protein kinase 1 (Homo sapiens) (UniProt P28482). As to the kind of experiment: Inhibition of MAPK2 (unknown origin) at 1000 nM relative to control.
Assay [14] addresses Tyrosine-protein kinase JAK3 (Homo sapiens) (UniProt P52333). Description: Inhibition of JAK3 (unknown origin) at 1000 nM relative to control.
The target of assay [15] is Aurora kinase A (Homo sapiens) (UniProt O14965). As to the kind of experiment: Inhibition of AURORA-A (unknown origin) at 1000 nM relative to control.
Assay [16] has as its target Discoidin domain-containing receptor 2 (Homo sapiens) (UniProt Q16832). As to the kind of experiment: Inhibition of DDR2 (unknown origin) at 1000 nM relative to control.
Assay [17] addresses Receptor tyrosine-protein kinase erbB-2 (Homo sapiens) (UniProt P04626). As to the kind of experiment: Inhibition of HER2 (unknown origin) at 1000 nM relative to control.
Assay [18] has as its target Mitogen-activated protein kinase 8 (Homo sapiens) (UniProt P45983). As to the kind of experiment: Inhibition of JNK1 (unknown origin) at 1000 nM relative to control.
Assay [19] has as its target Mitogen-activated protein kinase 1 (Homo sapiens) (UniProt P28482). As to the kind of experiment: Inhibition of ERK2 (unknown origin) at 1000 nM relative to control.
Assay [20] deals with Serine/threonine-protein kinase Chk2 (Homo sapiens) (UniProt O96017). As to the kind of experiment: Inhibition of CHK2 (unknown origin) at 1000 nM relative to control.
The target of assay [21] is Rho-associated protein kinase 1 (Homo sapiens) (UniProt Q13464). Description: Inhibition of ROCK1 (unknown origin) at 1000 nM relative to control.
Chain of Rho-associated protein kinase 1 (Homo sapiens) (Q13464 2-1354 limits assumed): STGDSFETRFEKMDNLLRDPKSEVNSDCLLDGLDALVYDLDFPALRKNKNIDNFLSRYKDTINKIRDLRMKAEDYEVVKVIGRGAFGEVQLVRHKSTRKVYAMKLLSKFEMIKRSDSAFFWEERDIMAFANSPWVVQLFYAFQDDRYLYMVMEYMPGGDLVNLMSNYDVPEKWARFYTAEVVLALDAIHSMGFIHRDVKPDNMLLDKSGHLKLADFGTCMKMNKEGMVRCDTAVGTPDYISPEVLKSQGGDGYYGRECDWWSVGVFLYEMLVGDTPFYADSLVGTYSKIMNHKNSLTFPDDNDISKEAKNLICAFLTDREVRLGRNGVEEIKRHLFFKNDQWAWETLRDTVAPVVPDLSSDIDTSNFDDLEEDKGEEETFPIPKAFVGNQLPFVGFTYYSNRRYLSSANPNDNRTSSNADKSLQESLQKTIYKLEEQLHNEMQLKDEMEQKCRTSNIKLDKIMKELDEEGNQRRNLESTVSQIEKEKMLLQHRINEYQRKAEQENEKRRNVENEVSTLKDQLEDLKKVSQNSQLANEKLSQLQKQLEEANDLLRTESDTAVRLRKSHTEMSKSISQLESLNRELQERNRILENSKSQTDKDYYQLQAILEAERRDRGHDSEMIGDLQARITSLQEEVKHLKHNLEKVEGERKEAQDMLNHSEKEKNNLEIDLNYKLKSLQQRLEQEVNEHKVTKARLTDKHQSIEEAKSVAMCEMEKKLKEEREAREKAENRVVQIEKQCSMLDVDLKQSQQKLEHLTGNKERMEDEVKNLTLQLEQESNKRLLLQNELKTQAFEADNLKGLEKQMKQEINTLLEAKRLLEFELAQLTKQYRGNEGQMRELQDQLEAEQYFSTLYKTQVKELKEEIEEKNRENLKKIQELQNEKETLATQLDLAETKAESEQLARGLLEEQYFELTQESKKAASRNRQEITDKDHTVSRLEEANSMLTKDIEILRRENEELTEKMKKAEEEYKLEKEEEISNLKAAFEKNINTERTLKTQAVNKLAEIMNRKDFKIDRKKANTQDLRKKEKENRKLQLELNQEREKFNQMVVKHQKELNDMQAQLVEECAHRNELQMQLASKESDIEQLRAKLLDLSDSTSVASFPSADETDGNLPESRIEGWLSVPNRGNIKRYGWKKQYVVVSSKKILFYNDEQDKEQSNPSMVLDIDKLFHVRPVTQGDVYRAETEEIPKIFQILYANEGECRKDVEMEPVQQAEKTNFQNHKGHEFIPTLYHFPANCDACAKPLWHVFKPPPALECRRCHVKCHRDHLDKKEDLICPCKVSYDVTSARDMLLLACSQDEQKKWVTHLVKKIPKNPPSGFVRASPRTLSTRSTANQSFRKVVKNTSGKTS
Assay [22] addresses Glycogen synthase kinase-3 alpha (Homo sapiens) (UniProt P49840). Description: Inhibition of GSK3alpha (unknown origin) at 1000 nM relative to control.
The target of assay [23] is Mitogen-activated protein kinase kinase kinase 14 (Homo sapiens) (UniProt Q99558). As to the kind of experiment: Inhibition of NIK (unknown origin) at 1000 nM relative to control.
For assay [24], the target named is Hepatocyte growth factor receptor (Homo sapiens) (UniProt P08581). As to the kind of experiment: Inhibition of C-MET (unknown origin) at 1000 nM relative to control.
The target of assay [25] is Casein kinase I isoform alpha-like (Homo sapiens) (UniProt Q8N752). As to the kind of experiment: Inhibition of CK1A1 (unknown origin) at 1000 nM relative to control.
Assay [26] deals with RAC-alpha serine/threonine-protein kinase (Homo sapiens) (UniProt P31749). As to the kind of experiment: Inhibition of AKT1 (unknown origin) at 1000 nM relative to control.
For assay [27], the system named is MOLM-13. Description: Induction of apoptosis in human MOLM-13 cells at 10 nM after 48 hrs by Annexin-V/PI staining based flow cytometry. In kind it is functional, cell-based. Background: In flow cytometry, cells or beads pass a laser one at a time.
Assay [28] concerns MV4-11. As to the kind of experiment: Induction of apoptosis in human MV4-11 cells at 10 nM after 48 hrs by Annexin-V/PI staining based flow cytometry. In kind it is functional, cell-based.

Molecules are shown by their SMILES. Active and inactive are the calls of the source. The rule behind the calls is not given here.

Chain of Mitogen-activated protein kinase 1 (Homo sapiens) (P28482 whole entry): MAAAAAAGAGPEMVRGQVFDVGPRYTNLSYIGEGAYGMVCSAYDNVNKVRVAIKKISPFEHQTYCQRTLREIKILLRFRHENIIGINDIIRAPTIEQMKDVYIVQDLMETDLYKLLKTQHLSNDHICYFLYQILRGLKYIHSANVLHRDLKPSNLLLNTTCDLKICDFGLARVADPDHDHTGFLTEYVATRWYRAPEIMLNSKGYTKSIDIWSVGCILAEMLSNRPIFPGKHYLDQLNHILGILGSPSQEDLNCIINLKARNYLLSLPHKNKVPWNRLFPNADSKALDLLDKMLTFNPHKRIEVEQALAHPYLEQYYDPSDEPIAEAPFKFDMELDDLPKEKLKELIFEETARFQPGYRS
Chain of Receptor-type tyrosine-protein kinase FLT3 (Homo sapiens), P36888 [UNDEFINED MUTATION] (P36888 whole entry, looked up, stated change not applied): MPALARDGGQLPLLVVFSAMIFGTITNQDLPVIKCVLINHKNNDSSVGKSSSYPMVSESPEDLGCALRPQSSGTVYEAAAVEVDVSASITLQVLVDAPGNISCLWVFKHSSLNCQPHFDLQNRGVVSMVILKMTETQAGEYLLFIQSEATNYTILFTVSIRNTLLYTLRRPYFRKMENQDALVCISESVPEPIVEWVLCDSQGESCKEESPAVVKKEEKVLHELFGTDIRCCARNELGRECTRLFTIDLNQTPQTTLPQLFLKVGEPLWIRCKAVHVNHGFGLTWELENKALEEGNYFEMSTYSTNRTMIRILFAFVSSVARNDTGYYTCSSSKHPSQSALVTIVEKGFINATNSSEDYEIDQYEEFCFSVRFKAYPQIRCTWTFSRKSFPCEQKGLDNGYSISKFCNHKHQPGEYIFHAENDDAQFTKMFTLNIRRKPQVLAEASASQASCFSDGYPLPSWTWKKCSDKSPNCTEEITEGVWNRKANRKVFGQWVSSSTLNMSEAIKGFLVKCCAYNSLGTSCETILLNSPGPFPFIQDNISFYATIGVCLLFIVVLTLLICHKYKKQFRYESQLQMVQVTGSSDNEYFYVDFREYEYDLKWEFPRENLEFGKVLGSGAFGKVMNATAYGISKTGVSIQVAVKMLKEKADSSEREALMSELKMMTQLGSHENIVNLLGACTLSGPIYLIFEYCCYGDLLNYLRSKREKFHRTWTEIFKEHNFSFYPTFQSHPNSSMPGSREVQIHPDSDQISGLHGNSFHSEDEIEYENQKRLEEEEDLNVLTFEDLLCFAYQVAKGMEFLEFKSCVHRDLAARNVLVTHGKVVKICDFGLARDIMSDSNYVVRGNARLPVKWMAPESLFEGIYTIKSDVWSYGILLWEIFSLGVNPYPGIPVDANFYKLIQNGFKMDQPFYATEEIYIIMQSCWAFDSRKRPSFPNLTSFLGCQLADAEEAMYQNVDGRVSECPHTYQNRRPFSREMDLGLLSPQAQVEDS
Chain of Mitogen-activated protein kinase 8 (Homo sapiens) (P45983 whole entry): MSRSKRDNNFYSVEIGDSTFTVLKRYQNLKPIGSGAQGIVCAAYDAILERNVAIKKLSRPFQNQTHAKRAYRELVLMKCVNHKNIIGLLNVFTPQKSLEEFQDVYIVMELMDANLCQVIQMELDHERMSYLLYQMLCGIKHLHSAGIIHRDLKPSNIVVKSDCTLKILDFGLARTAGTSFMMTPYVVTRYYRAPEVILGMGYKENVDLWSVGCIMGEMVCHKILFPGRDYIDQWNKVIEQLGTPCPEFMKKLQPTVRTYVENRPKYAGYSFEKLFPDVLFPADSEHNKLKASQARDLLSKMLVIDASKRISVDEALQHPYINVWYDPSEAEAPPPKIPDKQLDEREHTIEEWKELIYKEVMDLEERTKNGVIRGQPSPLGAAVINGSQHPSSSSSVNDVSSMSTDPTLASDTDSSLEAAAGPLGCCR
Chain of Discoidin domain-containing receptor 2 (Homo sapiens) (Q16832 whole entry, the tested form may be a part): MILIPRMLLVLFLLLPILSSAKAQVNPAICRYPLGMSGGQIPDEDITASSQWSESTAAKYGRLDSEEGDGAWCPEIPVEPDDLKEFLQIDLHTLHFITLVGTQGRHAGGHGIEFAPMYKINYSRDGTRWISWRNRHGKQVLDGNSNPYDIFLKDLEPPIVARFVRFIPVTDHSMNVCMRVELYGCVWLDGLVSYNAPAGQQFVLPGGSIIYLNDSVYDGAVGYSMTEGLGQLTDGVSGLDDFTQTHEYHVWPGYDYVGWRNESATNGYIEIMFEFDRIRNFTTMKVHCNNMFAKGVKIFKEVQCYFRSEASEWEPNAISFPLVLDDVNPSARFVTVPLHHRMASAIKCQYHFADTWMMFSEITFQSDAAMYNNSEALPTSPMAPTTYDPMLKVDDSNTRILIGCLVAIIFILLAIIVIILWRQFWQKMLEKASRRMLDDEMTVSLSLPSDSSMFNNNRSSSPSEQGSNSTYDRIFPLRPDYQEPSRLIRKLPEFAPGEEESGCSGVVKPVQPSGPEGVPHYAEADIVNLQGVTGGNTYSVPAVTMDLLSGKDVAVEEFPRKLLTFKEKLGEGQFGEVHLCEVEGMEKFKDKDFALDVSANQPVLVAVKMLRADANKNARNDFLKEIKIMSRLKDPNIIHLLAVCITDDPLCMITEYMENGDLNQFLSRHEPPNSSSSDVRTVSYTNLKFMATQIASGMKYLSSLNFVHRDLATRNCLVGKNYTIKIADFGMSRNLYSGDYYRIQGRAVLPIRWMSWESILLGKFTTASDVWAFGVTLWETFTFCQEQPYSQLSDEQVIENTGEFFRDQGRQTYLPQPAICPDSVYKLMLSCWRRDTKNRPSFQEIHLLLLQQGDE

In the case of `C[C@@H]1C[C@@H]([C@H](O)CC2CC(=O)NC(=O)C2)C(=O)[C@@H](C)C1`, the result in [1] was inactive.
For `CN1CCN(c2ccc3nc(-c4c(N)c5c(F)cccc5[nH]c4=O)[nH]c3c2)CC1` [DOVITINIB], the IC50 with MOLM-13 [2] amounted to 795 nM; in the assay with MV4-11 [3], 184 nM. Also, the inhibition amounted to 98% in assay [4]; 94% in [5]; 85% in [6]; 82% in [7]; 79% in assay [8]; 70% in [9]. The inhibition in [10] is 64%; in assay [11], 57%; in [12], 55%; in assay [13] it was 54%; in assay [14] it was 54%; in assay [15], 38%. In addition, the inhibition in assay [16] came to 38%; in assay [17] it was 37%; in [18] it was 33%; in assay [19], 31%; in assay [20] it was 25%; in assay [21], 23%. The inhibition came out at 20% in assay [22]; 2% in assay [23]; 14% in assay [24]; 10% in assay [25]; 4% in [26]. The outcome with MOLM-13 [27] and in the assay with MV4-11 [28] was inactive.

Usually IC50 stands for the concentration at which inhibition is half-maximal. In general, inhibition refers to the percentage by which the read-out fell short of the control. A low value points to a weak effect.
